Where two headings read alike, the source gives them in different places. Marks after values point to notes of the source that are not given here.
Key:
Pyrenophora teres = test: In vivo test on Pyrenophora teres (barley net blotch); conditions: dose of 500 ppm; barley plants; grading 12 days after contamination
Procedure: In Vivo Test on Pyrenophora teres (Barley Net Blotch)
The active ingredients tested are prepared by homogenization in a mixture of acetone/Tween/DMSO, then diluted with water to obtain the desired active material concentration.
Barley plants (Plaisant variety), sown on a 50/50 peat soil-pozzolana substrate in starter cups and grown at 12° C., are treated at the 1-leaf stage (10 cm tall) by spraying with the active ingredient prepared as described above.
Plants, used as controls, are treated with an aqueous solution not containing the active material.
After 24 hours, the plants are contaminated by spraying them with an aqueous suspension of Pyrenophora teres spores (12,000 spores per ml). The spores are collected from a 12-day-old culture. The contaminated barley plants are incubated for 24 hours at about 20° C. and at 100% relative humidity, and then for 12 days at 80% relative humidity.
Grading is carried out 12 days after the contamination, in comparison with the control plants.

Fusarium graminearum = assay type: cell-based; conditions: 50 μM; for % Inhibition of DON/AcDON at 50 μM: 7 days at 28° C.
Alternaria solani = test: Alternaria test (tomato) / protective; assay type: in vivo; conditions: 500 ppm active compound, protective spray, evaluated 7 days after inoculation
Procedure: Alternaria Test (Tomato)/Protective
Solvent: 49 parts by weight of N,N-dimethylformamide
Emulsifier: 1 part by weight of alkylaryl polyglycol ether
To produce a suitable preparation of active compound, 1 part by weight of active compound is mixed with the stated amounts of solvent and emulsifier, and the concentrate is diluted with water to the desired concentration.
To test for protective activity, young tomato plants are sprayed with the preparation of active compound at the stated application rate. […] The plants then remain at 96% rel. atmospheric humidity and a temperature of 20° C.
Evaluation is carried out 7 days after the inoculation. 0% means an efficacy which corresponds to that of the control, whereas an efficacy of 100% means that no infection is observed.

Row | SMILES | protection (Pyrenophora teres) [%] | log p (pH 2.7) | % Inhibition of fungal growth at 50 μM (Fusarium graminearum) [%] | % Inhibition of DON/AcDON at 50 μM (Fusarium graminearum) [%] | efficacy (Alternaria solani) [%] | other results
1 | CC(C)n1cc(-c2ccnc(NC(=O)c3cccs3)c2)c(-c2ccc(Cl)s2)n1 [Example 241] | 80 | 3.96^[b] | – | – | – | –
2 | CCOC(=O)Nc1cc(-c2cn(CC)nc2-c2ccc(Cl)s2)ccn1 [Example 265] | 70 | 3^[b] | 23 | 87 | – | –
3 | CCC(C)n1cc(-c2ccnc(NCC3CC3)n2)c(-c2ccc(Cl)s2)n1 (stereo not shown) [Example 187] | 70 | – | – | – | – | log p (pH 2.3): 3.41^[a]
4 | CC(C)n1cc(-c2ccnc(NCC3CC3)n2)c(-c2ccc(Cl)s2)n1 [Example 183] | 70 | – | – | – | – | log p (pH 2.3): 3.02^[a]
5 | CC(C)n1cc(-c2ccnc(NC(=O)Cc3ccccc3)c2)c(-c2ccc(Cl)s2)n1 [Example 245] | 100 | 3.94^[b] | – | – | – | –
6 | CC(C)OC(=O)Nc1cc(-c2cn(C(C)C)nc2-c2ccc(Cl)s2)ccn1 [Example 242] | 70 | 3.85^[b] | – | – | 90 | –
7 | CCOC(=O)Nc1cc(-c2cn(C(C)C)nc2-c2ccc(Cl)s2)ccn1 [Example 259] | 80 | 3.46^[b] | – | – | 90 | –
8 | CC(C)n1cc(-c2ccnc(NC3CC3)n2)c(-c2ccc(Cl)s2)n1 [Example 177] | 95 | – | – | – | 90 | log p (pH 2.3): 2.59^[a]
9 | CCn1cc(-c2ccnc(NC(=O)Cc3ccccc3)c2)c(-c2ccc(Cl)s2)n1 [Example 262] | 90 | 3.48^[b] | – | – | 80 | –
10 | CCC(C)n1nc(-c2ccc(Cl)s2)c(-c2ccncc2)c1F (stereo not shown) [Example 213] | 70 | 2.61^[b] | – | – | 80 | –
11 | CC(C)OC(=O)Nc1cc(-c2cn(C)nc2-c2ccc(Cl)s2)ccn1 [Example 274] | 80 | 2.9^[b] | – | – | 80 | –
12 | CCC(C)n1cc(-c2ccnc(N)n2)c(-c2ccc(Cl)s2)n1 (stereo not shown) [Example 193] | 95 | – | – | – | – | log p (pH 2.3): 2.3^[a]
13 | C[C@H](O)C(=O)Nc1cc(-c2cn(C)nc2-c2ccc(Cl)s2)ccn1 [Example 207] | 70 | 2.11^[b] | – | – | – | –
14 | C#CCNc1nccc(-c2cn(C(C)CC)nc2-c2ccc(Cl)s2)n1 (stereo not shown) [Example 188] | 78 | – | – | – | – | log p (pH 2.3): 3.68^[a]
15 | CCC(C)n1cc(-c2ccnc(NC(C)COC)n2)c(-c2ccc(Cl)s2)n1 (stereo not shown) [Example 186] | 70 | – | – | – | – | log p (pH 2.3): 3.21^[a]
16 | CCn1cc(-c2ccnc(NC(=O)[C@H](C)O)c2)c(-c2ccc(Cl)s2)n1 [Example 206] | 90 | 2.37^[b] | – | – | 80 | –
17 | CCn1cc(-c2ccnc(NC(=O)C(C)(C)O)c2)c(-c2ccc(Cl)s2)n1 [Example 212] | 80 | 2.73^[b] | – | – | 70 | –
18 | CC(C)n1cc(-c2ccnc(NC(=O)c3ccsc3)c2)c(-c2ccc(Cl)s2)n1 [Example 232] | 80 | 3.79^[b] | – | – | 80 | –
19 | CCOC(=O)Nc1cc(-c2cn(C)nc2-c2ccc(Cl)s2)ccn1 [Example 271] | 90 | 2.56^[b] | 20 | 94 | – | –
20 | Cn1cc(-c2ccnc(NC(=O)C(C)(C)O)c2)c(-c2ccc(Cl)s2)n1 [Example 208] | 80 | 2.26^[b] | – | – | – | –
21 | CCC(C)n1cc(-c2ccnc(NC(=O)C(C)(C)O)c2)c(-c2ccc(Cl)s2)n1 (stereo not shown) [Example 210] | 70 | 4.24^[b] | – | – | 90 | –
22 | Cn1cc(-c2ccnc(NC(=O)C3CCC3)c2)c(-c2ccc(Cl)s2)n1 [Example 275] | 90 | 2.52^[b] | 95 | 99 | – | –
23 | CCn1cc(-c2ccnc(NC(=O)c3cccs3)c2)c(-c2ccc(Cl)s2)n1 [Example 267] | 80 | 3.48^[b] | 47 | 89 | – | –
24 | CCC(C)n1cc(-c2ccnc(NC(=O)c3cccs3)c2)c(-c2ccc(Cl)s2)n1 (stereo not shown) [Example 238] | 80 | 4.37^[b] | – | – | 70 | –

Row | SMILES | protection (Pyrenophora teres) [%] | log p (pH 2.7) | % Inhibition of fungal growth at 50 μM (Fusarium graminearum) [%] | % Inhibition of DON/AcDON at 50 μM (Fusarium graminearum) [%] | efficacy (Alternaria solani) [%] | other results
25 | Clc1ccc(-c2nn(C3CCCCC3)cc2-c2ccncc2)s1 [Example 11] | 89 | 2.54^[b] | – | – | – | –
26 | CC(C)(C)Cn1cc(-c2ccncc2)c(-c2ccc(Cl)s2)n1 [Example 24] | 90 | 2.39^[b] | – | – | – | –
27 | CCC(C)n1cc(-c2ccnc(N(C(C)=O)C(C)=O)n2)c(-c2ccc(Cl)s2)n1 (stereo not shown) [Example 150] | 95 | – | – | – | – | log p (pH 2.3): 3.72^[a]
28 | CCn1cc(-c2ccncc2)c(-c2ccc(Cl)s2)n1 [Example 57] | 95 | 1.5^[b] | – | – | – | logP value of the minor isomer (in parenthesis in column Isomer ratio [d]) (minor isomer, main value of the example measured by method [b], pH 2.7): (1.42)
29 | CC(C)C(=O)Nc1nccc(-c2cn(C(C)C)nc2-c2ccc(Cl)s2)n1 [Example 174] | 90 | – | – | – | – | log p (pH 2.3): 3.29^[a]
30 | CC(C)CC(C)n1cc(-c2ccncc2)c(-c2ccc(Cl)s2)n1 (stereo not shown) [Example 13] | 94 | 2.7^[b] | – | – | – | –
31 | CCC(C)n1cc(-c2ccnc(NC3CC3)n2)c(-c2ccc(Cl)s2)n1 (stereo not shown) [Example 195] | 95 | – | 94 | 99 | – | log p (pH 2.3): 2.9^[a]
32 | CCCc1c(-c2ccnc(NC(=O)CC)c2)c(-c2sccc2C)nn1C [Example 166] | 80 | 2.29^[b] | – | – | – | logP value of the minor isomer (pH 2.7): 2.39^[b]); log p (pH 7.8): 2.71^[c];; logP value of the minor isomer (pH 7.8): (2.84^[c];
33 | CC(C)n1cc(-c2ccncc2)c(-c2cccs2)n1 [Example 300] | – | 1.27^[b] | 100 | 99 | 95 | –
34 | Fc1ccc(-c2nn(C3CCCC3)cc2-c2ccncc2)s1 [Example 344] | – | 2.02^[b] | 91 | 98 | 94 | –
35 | CC(C)Cn1nc(-c2ccc(Cl)s2)c(-c2ccncc2)c1Br [Example 395] | – | 3.58^[b] | 0 | 99 | 78 | –
36 | CCC(CC)n1cc(-c2ccncc2)c(-c2ccc(F)s2)n1 [Example 380] | – | 2.04^[b] | 82 | 99 | 89 | logP value of the minor isomer (pH 2.7): (1.95)
37 | CC(C)Cn1cc(-c2ccncn2)c(-c2ccc(Cl)s2)n1 [Example 26] | 70 | 3.31^[b] | – | – | – | –
38 | Cn1cc(-c2ccnc(NC(=O)c3ccccc3)c2)c(-c2ccc(Cl)s2)n1 [Example 272] | 70 | 3.09^[b] | – | – | – | –
39 | CCn1cc(-c2ccncc2)c(-c2ccc(Br)s2)n1 [Example 390] | – | 1.6^[b] | 100 | 99 | 100 | logP value of the minor isomer (pH 2.7): (1.49)
40 | CCC(C)n1nc(-c2ccc(Cl)s2)c(-c2ccncc2)c1Cl (stereo not shown) [Example 201] | – | 3.44^[b] | 39 | 94 | 78 | –
41 | CCC(C)n1cc(-c2ccnc(NC(C)=O)n2)c(-c2ccc(Cl)s2)n1 (stereo not shown) [Example 151] | 90 | – | – | – | – | log p (pH 2.3): 3^[a]
42 | CCOCCn1cc(-c2ccncc2)c(-c2ccc(F)s2)n1 [Example 374] | – | 1.43^[b] | 58 | 99 | 94 | –
43 | CC1(Cn2cc(-c3ccncc3)c(-c3ccc(F)s3)n2)CC1(Cl)Cl (stereo not shown) [Example 342] | – | 2.39^[b] | 23 | 97 | 89 | –
44 | CCC(C)n1cc(-c2ccnc(NC(=O)c3ccsc3)c2)c(-c2ccc(Cl)s2)n1 (stereo not shown) [Example 230] | 70 | 4.21^[b] | – | – | – | –
45 | CC(C)Cn1cc(-c2ccncc2)c(-c2ccc(F)s2)n1 [Example 379] | – | 1.82^[b] | 90 | 99 | 94 | logP value of the minor isomer (pH 2.7): (1.72)
46 | O=C1OCCC1n1cc(-c2ccncc2)c(-c2ccc(Cl)s2)n1 (stereo not shown) [Example 365] | – | 1.48^[b] | 100 | 90 | 78 | –
47 | CC(=O)Nc1nccc(-c2cn(C(C)C)nc2-c2ccc(Cl)s2)n1 [Example 176] | 90 | – | – | – | – | log p (pH 2.3): 2.59^[a]
